Results published in US12568969B2, “Pyridine compounds for controlling invertebrate pests” (FMC Corporation, priority 2020, dated 2026).

Columns and labels:
[1] = system: diamondback moth (Plutella xylostella (L.)); test: Test A: control of diamondback moth on mustard plant, spray; type: in vivo; conditions: sprayed at 250 ppm; assessed after 6 days
[2] = system: corn planthopper (Peregrinus maidis (Ashmead)); test: whole plant or invertebrate; type: in vivo; conditions: for mortality at 50 ppm / mortality at 250 ppm / mortality at 10 ppm: Peregrinus maidis, 144 h, 6 days; for Control Efficacy CPH: corn planthopper
Summary of the method: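 Corn plants 3-4 days old were sprayed at 250, 50 and/or 10 ppm in 10% acetone with 300 ppm non-ionic surfactant, three replicates, contact and/or systemic exposure. After 1 h drying, ~15-20 nymphs (18-to-21-day-old) were added; mortality assessed visually after 6 days at 22-24° C, 50-70% RH.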

[3] = system: green peach aphid (Myzus persicae (Sulzer)); test: Test D: control of green peach aphid on radish plant, spray; type: in vivo; conditions: for mortality at 250 ppm / mortality at 50 ppm: Myzus persicae, 144 h, 6 days; for Control Efficacy GPA: green peach aphid
Summary of the method: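 Radish plants (12-15 days old) pre-infested with 30-40 aphids, sprayed with compound in 10% acetone/water with 300 ppm non-ionic surfactant at 250 and/or 50 ppm, three replicates. Held 6 days at 19-21 °C, 50-70% relative humidity, then mortality scored visually.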

[4] = system: cotton melon aphid (Aphis gossypii (Glover)); test: whole plant or invertebrate; type: in vivo; conditions: for mortality at 50 ppm / mortality at 250 ppm: Aphis gossypii, 144 h, 6 days; for Control Efficacy CMA: cotton melon aphid
Summary of the method: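 Compounds were formulated in a solution of 10% acetone, […] and 300 ppm Activator 909 non-ionic surfactant and sprayed as 1 mL through an atomizer nozzle 1.27 cm (0.5 inches) above each test unit, with three replicates. Units were pre-infested with 30-40 aphids on leaf pieces via the cut-leaf method, soil covered with sand, then kept 6 days at 19° C. and 70% relative humidity before visual mortality scoring.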

[5] = system: sweetpotato whitefly (Bemisia tabaci (Gennadius)); test: Test F: control of sweetpotato whitefly on cotton plant, spray; type: in vivo; conditions: 312 h, 13 days; for mortality at 50 ppm: sprayed at 50 ppm; for mortality at 250 ppm: sprayed at 250 ppm
Summary of the method: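 Cotton plants 12–14 days old, trimmed to one true leaf and carrying at least 15 whitefly eggs, were sprayed at 250 and/or 50 ppm in acetone/water with non-ionic surfactant, three replicates. After 13 days at 28° C and 50-70% relative humidity, insect mortality was scored visually.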

[6] = system: Western Flower Thrips (Frankliniellla occidentalis (Pergande)); test: Test G: control of Western Flower Thrips on Soleil bean plant, spray; type: in vivo; conditions: sprayed at 250 ppm; 6 days
Procedure: (§1) Test compounds were formulated using a solution containing 10% acetone, […] and 300 ppm Activator 909 non-ionic surfactant (Loveland Products, Loveland, Colorado, USA). The formulated compounds were applied in 1 mL of liquid through an atomizer nozzle positioned 1.27 cm (0.5 inches) above the top of each test unit. Test compounds were sprayed at the rates indicated, and each test was replicated three times.
For evaluating control of the Western Flower Thrips (Frankliniellla occidentalis (Pergande)) through contact and/or systemic means, the test unit consisted of a small open container with a 5-7-day-old Soleil bean plant inside.
Test compounds were formulated and sprayed at 250 ppm. After spraying, the test units were allowed to dry for 1 hour, and then about 60 thrips (adults and nymphs) were added to each unit. A black, screened cap was placed on top, and the test units were held for 6 days at 25° C. and 45-55% relative humidity. Each test unit was then visually assessed for plant damage and insect mortality.

[7] = system: potato leafhopper (Empoasca fabae (Harris)); test: Test C: control of potato leafhopper on Soleil bean plant, spray; type: in vivo; conditions: for mortality at 250 ppm: Empoasca fabae, 144 h, 6 days; for Control Efficacy PLH: potato leafhopper
Procedure: as §1
For evaluating control of potato leafhopper (Empoasca fabae (Harris)) through contact and/or systemic means, the test unit consisted of a small open container with a 5-6-day-old Soleil bean plant (primary leaves emerged) inside. White sand was added to the top of the soil, and one of the primary leaves was excised prior to application of the test compound.
[…] After spraying of the formulated test compound, the test units were allowed to dry for 1 hour before they were post-infested with 5 potato leafhoppers (18-to-21-day-old adults). A black, screened cap was placed on the top of the test unit, and the test units were held for 6 days in a growth chamber at 20° C. and 70% relative humidity. Each test unit was then visually assessed for insect mortality.

[8] = Vapor pressure estimated by GC/MS retention time correlation; type: physicochemical
Procedure: The procedures to obtain the vapor pressure values for both compounds are as follows: A solution of the test compound was prepared in acetonitrile at a concentration of 50 μg/mL and was then analyzed by gas chromatography/mass spectrometry (GC/MS). A linear correlation of retention times vs. known vapor pressure values of standard compounds is used to obtain an estimate of the vapor pressure of the test compounds by using interpolation. Detection and retention time of the subject compounds are confirmed by interpretation of the mass spectrum.

Compound	control efficacy (40% or less feeding damage and/or 100% mortality) [1]	mortality at 50 ppm ([2]; sprayed at 50 ppm)	mortality at 250 ppm ([2]; sprayed at 250 ppm)	mortality at 250 ppm ([3]; sprayed at 250 ppm)	mortality at 50 ppm ([4]; sprayed at 50 ppm)	mortality at 250 ppm ([4]; sprayed at 250 ppm)	mortality at 250 ppm [5]	control efficacy (30% or less plant damage and/or 100% mortality) [6]	mortality at 10 ppm ([2]; sprayed at 10 ppm)	mortality at 250 ppm ([7]; sprayed at 250 ppm)	mortality at 50 ppm ([3]; sprayed at 50 ppm)	further results
Fc1cncc(-n2cccn2)c1C(F)c1ccc(SC(F)(F)F)cc1 (stereo not drawn) [Compound 1]	very good to excellent levels of control efficacy	≥ 80%	≥ 80%	≥ 80%	≥ 80%	≥ 80%	≥ 70%	very good to excellent levels of control efficacy	–	–	–	mortality at 50 ppm [5]: ≥ 70%
FC(c1ccc(SC(F)(F)F)cc1)c1ccncc1-n1nccn1 (stereo not drawn) [Compound 69]	–	≥ 80%	≥ 80%	≥ 80%	≥ 80%	≥ 80%	≥ 70%	–	≥ 80%	≥ 80%	≥ 80%	mortality at 50 ppm [5]: ≥ 70%
Fc1cncc(-c2nccs2)c1C(F)c1ccc(OC(F)(F)F)cc1 (stereo not drawn) [Compound 33]	very good to excellent levels of control efficacy	≥ 80%	≥ 80%	–	≥ 80%	≥ 80%	–	very good to excellent levels of control efficacy	≥ 80%	≥ 80%	–	–
FC(c1ccc(OC(F)(F)F)cc1)c1c(Br)cncc1-n1nc(Br)c(Br)n1 (racemic) [Compound 29]	very good to excellent levels of control efficacy	–	–	–	–	–	–	very good to excellent levels of control efficacy	–	–	–	–
Fc1cncc(-c2ncco2)c1C(F)c1ccc(OC(F)(F)F)cc1 (stereo not drawn) [Compound 32]	very good to excellent levels of control efficacy	≥ 80%	≥ 80%	–	≥ 80%	≥ 80%	–	very good to excellent levels of control efficacy	≥ 80%	≥ 80%	–	–
Fc1cncc(-n2nccn2)c1C(F)c1ccc(OC(F)(F)F)cc1 (stereo not drawn) [Compound 8]	–	≥ 80%	≥ 80%	≥ 80%	≥ 80%	≥ 80%	–	–	–	≥ 80%	≥ 80%	control efficacy compared with compound A ([2]; CPH, down to 2 ppm): significantly higher control efficacy than compound A; Control Efficacy CPH ([2]; sprayed at 2 ppm): 89%; Control Efficacy CPH ([2]; sprayed at 10 ppm): 95%; Control Efficacy CPH ([2]; sprayed at 50 ppm): 100%; Control Efficacy CPH ([2]; sprayed at 250 ppm): 100%; control efficacy compared with compound A ([7]; PLH, at 250 ppm): significantly higher control efficacy than compound A; Control Efficacy PLH ([7]; sprayed at 50 ppm): 0; Control Efficacy PLH ([7]; sprayed at 250 ppm): 93; control efficacy compared with compound A ([3]; GPA, down to 2 ppm): significantly higher control efficacy than compound A; Control Efficacy GPA ([3]; sprayed at 2 ppm): 100%; Control Efficacy GPA ([3]; sprayed at 10 ppm): 94%; Control Efficacy GPA ([3]; sprayed at 50 ppm): 100%; Control Efficacy GPA ([3]; sprayed at 250 ppm): 100%; control efficacy compared with compound A ([4]; CMA, down to 2 ppm): significantly higher control efficacy than compound A; Control Efficacy CMA ([4]; sprayed at 2 ppm): 79%; Control Efficacy CMA ([4]; sprayed at 10 ppm): 88%; Control Efficacy CMA ([4]; sprayed at 50 ppm): 96%; Control Efficacy CMA ([4]; sprayed at 250 ppm): 80%; Vapor Pressure [8]: 6.04E−06; vapor pressure relative to compound A ([8]; compared with compound A): ~1000 times lower
COC(c1ccc(OC(F)(F)F)cc1)c1c(F)cncc1-n1cccn1 (stereo not drawn) [Compound 37]	–	≥ 80%	≥ 80%	≥ 80%	≥ 80%	≥ 80%	≥ 70%	–	–	≥ 80%	–	–
FC(c1ccc(OC(F)(F)F)cc1)c1c(Cl)cncc1-c1nccs1 (stereo not drawn) [Compound 50]	very good to excellent levels of control efficacy	≥ 80%	–	–	≥ 80%	≥ 80%	–	very good to excellent levels of control efficacy	≥ 80%	–	–	–
Fc1cncc(-c2ccno2)c1C(F)c1ccc(OC(F)(F)F)cc1 (stereo not drawn) [Compound 41]	–	≥ 80%	–	–	–	≥ 80%	–	very good to excellent levels of control efficacy	≥ 80%	–	–	–
Fc1cncc(-n2cccn2)c1C(F)c1ccc(C(F)(F)F)cc1 (stereo not drawn) [Compound 21]	very good to excellent levels of control efficacy	≥ 80%	≥ 80%	≥ 80%	≥ 80%	≥ 80%	–	–	–	≥ 80%	≥ 80%	–
FC(c1ccc(OC(F)(F)F)cc1)c1c(Cl)cncc1-n1nccn1 (stereo not drawn) [Compound 14]	–	≥ 80%	≥ 80%	≥ 80%	≥ 80%	≥ 80%	≥ 70%	–	–	≥ 80%	≥ 80%	mortality at 50 ppm [5]: ≥ 70%
Fc1cncc(-c2nccs2)c1C(F)c1ccc(OC(F)(F)F)cc1 (stereo not drawn) [Compound 36]	very good to excellent levels of control efficacy	–	–	≥ 80%	–	–	≥ 70%	very good to excellent levels of control efficacy	–	–	–	–
